Experimental findings from ChEMBL document CHEMBL1148998, “Limonoids from the seeds of Melia azedarach” (1986) are described below.

Experiment [1] relates to Vibrio cholerae. Put plainly: Antibacterial activity against Vibrio cholerae at 10 mg/10 ml dimethylformamide. Type of experiment: functional.
The test system of experiment [2] is Vibrio cholerae. Put plainly: Antibacterial activity against Vibrio cholerae at 8 mg/10 ml dimethylformamide. In kind it is functional.
Experiment [3] deals with Vibrio cholerae. Put plainly: Antibacterial activity against Vibrio cholerae at 6 mg/10 ml dimethylformamide. Type of experiment: functional.
In experiment [4] the test system is Vibrio cholerae. As to the kind of experiment: Antibacterial activity against Vibrio cholerae at 4 mg/10 ml dimethylformamide. Type of experiment: functional.
The test system of experiment [5] is Vibrio cholerae. Put plainly: Antibacterial activity against Vibrio cholerae at 2 mg/10 ml dimethylformamide. Type of experiment: functional.
Experiment [6] relates to Klebsiella pneumoniae. As to the kind of experiment: Antibacterial activity against Klebsiella pneumoniae at 10 mg/10 ml dimethylformamide. Type of experiment: functional.
Experiment [7] concerns Klebsiella pneumoniae. Put plainly: Antibacterial activity against Klebsiella pneumoniae at 8 mg/10 ml dimethylformamide. Type of experiment: functional.
The test system of experiment [8] is Klebsiella pneumoniae. Put plainly: Antibacterial activity against Klebsiella pneumoniae at 6 mg/10 ml dimethylformamide. In kind it is functional.
The subject of experiment [9] is Klebsiella pneumoniae. As to the kind of experiment: Antibacterial activity against Klebsiella pneumoniae at 4 mg/10 ml dimethylformamide. Type of experiment: functional.
Experiment [10] relates to Klebsiella pneumoniae. As to the kind of experiment: Antibacterial activity against Klebsiella pneumoniae at 2 mg/10 ml dimethylformamide. In kind it is functional.
For experiment [11], the system named is Salmonella typhimurium. As to the kind of experiment: Antibacterial activity against Salmonella Typhimurium at 10 mg/10 ml dimethylformamide. Type of experiment: functional, Salmonella enterica subsp. enterica serovar Typhimurium.
For experiment [12], the system named is Salmonella typhimurium. Put plainly: Antibacterial activity against Salmonella Typhimurium at 8 mg/10 ml dimethylformamide. In kind it is functional, Salmonella enterica subsp. enterica serovar Typhimurium.
Experiment [13] has as its system Salmonella typhimurium. As to the kind of experiment: Antibacterial activity against Salmonella Typhimurium at 6 mg/10 ml dimethylformamide. Type of experiment: functional, Salmonella enterica subsp. enterica serovar Typhimurium.
The test system of experiment [14] is Salmonella typhimurium. Put plainly: Antibacterial activity against Salmonella Typhimurium at 4 mg/10 ml dimethylformamide. In kind it is functional, Salmonella enterica subsp. enterica serovar Typhimurium.
In experiment [15] the test system is Salmonella typhimurium. Put plainly: Antibacterial activity against Salmonella Typhimurium at 2 mg/10 ml dimethylformamide. In kind it is functional, Salmonella enterica subsp. enterica serovar Typhimurium.
Experiment [16] deals with Escherichia coli. Put plainly: Antibacterial activity against Escherichia coli at 10 mg/10 ml dimethylformamide. In kind it is functional.
Experiment [17] deals with Escherichia coli. As to the kind of experiment: Antibacterial activity against Escherichia coli at 8 mg/10 ml dimethylformamide. Type of experiment: functional.
Experiment [18] deals with Escherichia coli. Put plainly: Antibacterial activity against Escherichia coli at 6 mg/10 ml dimethylformamide. Type of experiment: functional.
In experiment [19] the test system is Escherichia coli. Put plainly: Antibacterial activity against Escherichia coli at 4 mg/10 ml dimethylformamide. In kind it is functional.
For experiment [20], the system named is Escherichia coli. As to the kind of experiment: Antibacterial activity against Escherichia coli at 2 mg/10 ml dimethylformamide. Type of experiment: functional.

Turning to `CC(=O)OC1=C2C(C)(C)[C@@H](O[C@@H]3O[C@@H](C)[C@H](O)[C@@H](O)[C@H]3O)C=C[C@]2(C)[C@H]2[C@H](O)C[C@@]3(C)[C@H](c4ccoc4)C[C@H]4O[C@]43[C@]2(C)C1=O`, the “inhibition zone (IZ)” value was 20 mm in experiment [1]; 18 mm in [2]; 17 mm in experiment [3]; 15 mm in [4]; 13 mm in experiment [5]; 18 mm in experiment [6]. Besides, the “inhibition zone (IZ)” value in experiment [7] came to 16 mm; in [8], 14 mm; in [9], 12 mm; in experiment [10] it was 10 mm; in [11], 16 mm; in [12], 15 mm. The “inhibition zone (IZ)” value in [13] turned out to be 13 mm; in experiment [14], 12 mm; in experiment [15] it was 11 mm; in [16], 15 mm; in experiment [17], 14 mm; in experiment [18], 12 mm. Also, the “inhibition zone (IZ)” value in experiment [19] is 11 mm; in experiment [20], 10 mm.

Consider `CN[C@@H]1[C@H](O[C@H]2[C@H](O[C@H]3[C@H](O)[C@@H](O)[C@H](N=C(N)N)[C@@H](O)[C@@H]3N=C(N)N)O[C@@H](C)[C@]2(O)C=O)O[C@@H](CO)[C@H](O)[C@H]1O` [STREPTOMYCIN], for which the “inhibition zone (IZ)” value was determined as 12 mm in experiment [1], 10 mm in [6], 9 mm in [11] and 8 mm in experiment [16].
